Source: paper PMC4211885 (PLoS ONE, 2014)
“Also recorded” adds a separate entry of the source.

Key:
OA/TAMac receptor = OA/TAMac receptor (Macrobrachium rosenbergii, UniProt D9U2B9); assay: Modulation of the transient calcium-dependent chloride current ICl-T in OA/TAMac-injected oocytes (voltage step protocol); type: cell-based; details: for Effect on ICl-T at lower concentration: 1 µM and 100 µM, 8 minute applications, n = 5 at each concentration; for Effect on ICl-T during prolonged application: 1 mM (high concentration), n = 4 oocytes
From the text: The fluctuations in holding current that we refer to as ID have often been referred to as the calcium-dependent chloride current. These currents are in fact complex and are known to contain multiple poorly defined components that arise from a number of unidentified potassium, chloride and mixed cationic channels, [47]. For this reason, we tested the effect of tyramine and octopamine on one of the better characterized components, the transient calcium-dependent chloride current that we refer to as ICl-T after. This current, which has been referred to as Iout, [54], ICl-2 [55] or ICl1-T [53], can be clearly isolated from ID using a specific pulse protocol (Fig. 6A). Furthermore, ICl-T is known to increase in response to inositol 1,4,5-triphosphate (IP3) injection, [55]. Modulation of this current therefore provides additional insight into how IP3 related pathways might be affected by transmitter application.
Figure 6 Differential modulation of a transient chloride current by tyramine (TA) and octopamine (OA). ICl-T is an endogenous calcium-dependent transient chloride current coupled to extra-celluar calcium influx. It is thought to arise from a single type of channel. […] (A) The voltage command protocol used to measure ICl-T is shown with an example current. The first step to +40 mV from the holding potential of −20 mV evokes no ICl-T and provides the baseline. The hyperpolarizing step to −140 mV induces calcium influx that causes ICl-T to appear during the second step to +40 mV [53]. The amplitude of ICl-T was measured as the difference between the first step and the peak of the transient current evoked by the second. (B) Measurements of ICl-T were taken every minute during the ID evoked by long applications of 1 mM TA and 1 mM OA. The vertical lines are the currents evoked by the voltage command pulse used to measure ICl-T (as shown in A). Their true amplitude was clipped from the image during figure preparation. Below the trace individual ICl-T transients are shown. Δ ICl-T is the difference in amplitude of these transients measured at different time points. The amplitude of ICl-T increases during continuous TA application and decreases during continuous OA application. There was a 38 minute washout period between the TA and OA applications. […]
ICl-T was measured under two-electrode voltage-clamp by hyperpolarizing the oocyte to −140 mV after a step to +40 mV and stepping back to +40 mV (Fig. 6A). […] ICl-T is measured instead of Icat because ICl-T is a pure chloride conductance that likely arises from one ion channel population while Icat is complex arising from more than one conductance.
We monitored ICl-T over the course of extended transmitter applications using the described pulse protocol. […]

[1] = system: CFTR conductance (intracellular cAMP); assay: cAMP detection by whole oocyte (CFTR) conductance in oocytes co-expressing CFTR and OA/TAMac; type: cell-based, Xenopus laevis; details: for Increase in cAMP levels (CFTR conductance): OA and TA at 100 µM or 1000 µM
From the text: It is also unlikely that the effects of tyramine at high concentration result from an increase in cAMP. It is common that octopaminergic GPCRs can couple through the canonical Gαs/cAMP pathway so we used co-expression of the Cystic Fibrosis Trans-membrane Conductance Regulator (CFTR) as a means of testing for increases in cAMP (see methods for more detail) [60]–[63].
As a means of detecting rises in intracellular cAMP levels we tested oocytes co-expressing the CFTR channel and OA/TAMac. Heterologously expressed CFTR can be used as an extremely sensitive assay for intracellular cAMP in Xenopus oocytes. CFTR mediates a chloride-selective leak conductance that is activated by increases in intracellular cAMP [63]. Activity of CFTR can thus be used to indicate whether changes in cAMP correspond with ligand application [60]–[62]. Whole oocyte conductance was monitored using a step protocol and calculated from I/V plots. The command voltage was stepped from the holding potential to various levels (−10 mV to −55 mV in −5 mV increments) for 150 ms. The steady state current during each step was plotted against the command voltage and fit to a line using Clampfit 10 software (Fig. S7A). The slope of the line was taken as the conductance. To minimize the magnitude of the holding current between drug applications, oocytes expressing CFTR were typically held at −20 mV which is close to the typical chloride reversal potential. This was confirmed by the fact that the direct-current evoked by forskolin could appear inward or outward at −20 mV. Oocytes expressing either OA/TAMac alone or OA/TAMac and CFTR typically had resting membrane potentials between −20 mV and −30 mV (mean of −26±5 mV calculated from oocytes in Fig. S7) due to increased expression of endogenous chloride currents.
(A) The measurement of whole oocyte conductance was done by plotting steady state current against the command voltage recorded during a step protocol. It is defined as the slope (I/V) of the linear least squares regression line. In the example shown tyramine (TA) causes no apparent change in whole oocyte conductance. Octopamine (OA) causes a small change compared to the adenylate cyclase activator forskolin (FSK). […] These cumulative data are from 20 OA/TAMac and CFTR-injected oocytes and 6 OA/TAMac -only injected oocytes. Conductance was measured as shown in A. Not all compounds were tested in all oocytes. Each response is treated as an independent sample. Concentrations of OA and TA were at 100 µM or 1000 µM, FSK was at 50 µM. Some points obtained at 3 minutes were grouped with the 4 minute responses. (C) The change in conductance (Δg) occurring within oocytes as determined by the difference between baseline and the indicated time points post-application of compound. […]

Sequence of OA/TAMac receptor (D9U2B9 entry or part of it): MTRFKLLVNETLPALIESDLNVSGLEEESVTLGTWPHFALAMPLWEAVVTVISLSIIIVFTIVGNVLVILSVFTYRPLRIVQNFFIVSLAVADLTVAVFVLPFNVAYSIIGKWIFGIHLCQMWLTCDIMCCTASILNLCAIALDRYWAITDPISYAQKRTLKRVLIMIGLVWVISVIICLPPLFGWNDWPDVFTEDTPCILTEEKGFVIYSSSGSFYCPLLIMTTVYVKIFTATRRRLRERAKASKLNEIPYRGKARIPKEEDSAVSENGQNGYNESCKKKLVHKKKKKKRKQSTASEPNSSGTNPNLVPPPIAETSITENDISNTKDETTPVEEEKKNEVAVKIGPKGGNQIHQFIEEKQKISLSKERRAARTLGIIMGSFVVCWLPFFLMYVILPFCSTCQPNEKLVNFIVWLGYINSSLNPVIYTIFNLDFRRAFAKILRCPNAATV

NCC(O)c1ccc(O)cc1 (racemic) [octopamine, (+/−)-octopamine]
Effect on ICl-T at lower concentration (OA/TAMac receptor): no apparent effect | Effect on ICl-T during prolonged application (OA/TAMac receptor): reversibly decreases; also recorded: decreased | Increase in cAMP levels (CFTR conductance) [1]: neither octopamine nor tyramine produced significant increases

NCCc1ccc(O)cc1 [tyramine]
Effect on ICl-T at lower concentration (OA/TAMac receptor): increase | Effect on ICl-T during prolonged application (OA/TAMac receptor): reversibly increases; also recorded: increased | Increase in cAMP levels (CFTR conductance) [1]: neither octopamine nor tyramine produced significant increases | Mean change in conductance (Δg) within oocytes ([1]; compiled from 12 oocytes, s.d. = 1.72 µS, high conductance outlier excluded): 0.30 µS
